Assay: Storage stability test of rinse solution
Format: physicochemical
Set-up: key: when the defect number of the test rinse solution is equal to or less than that of the rinse solution of the deionized water, it is evaluated as ‘O’; when the number is more than that of the deionized water, it is evaluated as ‘X’
Details: additive concentrations more than 3,000 ppm
Protocol: A rinse solution prepared in a predetermined concentration is filtered through a filter and left at rest at 25° C. for one month. A chemically amplified KrF resist composition AZ DX6270P manufactured by AZ Electronic Materials Manufacturing (Japan) K. K. is spin-coated on a silicon wafer and soft-baked at 120° C. for 90 seconds to form a resist film of 620 nm in thickness. The rinse solution after preservation is applied on the resist film and the wafer is rotated at a very high speed to dry it. The total defect numbers of all defects including gel defects and particle defects on this film are measured using a defect inspection apparatus KLA2360 manufactured by KLA Tencor corporation. The number of defects when the preserved test rinse solution is used as a rinse solution is compared with that when the preserved rinse solution consisting of only a deionized water is used (see Comparative example 1) and when the defect number of the test rinse solution is equal to or less than that of the rinse solution of the deionized water, it is evaluated as ‘O’ and when the number is more than that of the deionized water, it is evaluated as ‘X’.

Row | SMILES | Storage stabilities
1 | CCOC(O)C#CC(O)OCC (stereo not shown) [DODD, 3,8-dioxa-5-decyne-4,7-diol, reference compound] | X

Assay: Measurement of maximum dissolution quantity in water
Format: physicochemical
Details: water of 25° C.
Protocol: Different amounts of an additive agent for a rinse solution are added between transparent screws and in each cases water is further added as the total amount of the additive agent and water is made 100 g. These are mixed at 25° C. for 10 hours or more by using a stealer and left at rest for some time at this temperature. The state of dissolution thereof is observed by eyes and the maximum amount of the additive agent wherein insoluble matter is not observed in the solution is defined as a maximum dissolution quantity (ppm).

Row | SMILES | Maximum dissolution quantity of additives in water
2 | OCCCCO [1,4-butanediol, reference compound] | >10,000 ppm
3 | CCOC(O)C#CC(O)OCC (stereo not shown) [DODD, 3,8-dioxa-5-decyne-4,7-diol, reference compound] | >10,000 ppm
4 | OCc1cccc(CO)c1 [MXG, 1,3-benzendimethanol] | >10,000 ppm
5 | CCC(C)(O)C#CC(C)(O)CC (stereo not shown) [DMOD, 3,6-dimethyl-4-octyn-3,6-diol] | >10,000 ppm
6 | CC(O)C#CC(C)O (stereo not shown) [HXYD, 3-hexyne-2,5-diol] | >10,000 ppm
7 | OCc1ccc(CO)cc1 [PXG, p-xylylene glycol] | >10,000 ppm
8 | OCC#CCO [BTD, 1,4-butynediol] | >10,000 ppm
9 | OCC#CC#CCO [HXDD, 2,4-hexadiyn-1,6-diol] | >10,000 ppm
10 | OCC1CCC(CO)CC1 (stereo not shown) [CHDM, 1,4-cyclohexanedimethanol, reference compound] | >10,000 ppm
11 | OCc1ccccc1CO [OXG, 1,2-benzendimethanol] | >10,000 ppm
12 | CC(C)(O)C#CC(C)(C)O [DMHD, 2,5-dimethyl-3-hexyne-2,5-diol] | >10,000 ppm

Assay: Measurement of surface tension of rinse solution
Format: physicochemical
Details: rinse solution containing 1,000 ppm of the additive
Protocol: A surface tension measurement of a prepared rinse solution was conducted using the surface tensiometer CBVP-Z manufactured by Kyowa interface science Co., LTD.

Row | SMILES | Surface tension of the rinse solution
13 | CC(O)C=CC(C)O (stereo not shown) [HXED, 3-hexene-2,5-diol] | 66.5 mN/m

Source: US9494867B2, “Rinsing liquid for lithography and pattern forming method using same” (AZ ELECTRONIC MATERIALS (LUXEMBOURG) S.A.R.L., priority 2013, dated 2016)
